Test results from Sander's compilation of Henry's law constants (doi:10.1007/bf00479396).

Assay: Henry solubility constant Hcp at 293 K (mol/(m3 Pa))
Conditions: reference: Tremp et al. (1993)

| Structure (SMILES) | Henry solubility constant Hcp at 293 K |
| --- | --- |
| Cc1ccccc1O [1-hydroxy-2-methylbenzene] | 7.1 |
| Cc1ccc(O)cc1 [1-hydroxy-4-methylbenzene] | 13 |
| O=[N+]([O-])c1ccc(O)c([N+](=O)[O-])c1 [2,4-dinitrophenol] | 110 |
| O=[N+]([O-])c1ccccc1O [2-nitrophenol] | 0.77 |
| Cc1cc(O)ccc1[N+](=O)[O-] [3-methyl-4-nitrophenol] | 620 |
| CCC(C)c1ccc(O)c([N+](=O)[O-])c1 (configuration not stated) [4-(1-methylpropyl)-2-nitrophenol] | 0.1 |
| COc1ccc(O)c([N+](=O)[O-])c1 [4-methoxy-2-nitrophenol] | 5.3 |
| Cc1ccc(O)c([N+](=O)[O-])c1 [4-methyl-2-nitrophenol] | 0.67 |
| O=[N+]([O-])c1ccc(O)cc1 [4-nitrophenol] | 770 |
| O=[N+]([O-])c1ccc(F)cc1O [5-fluoro-2-nitrophenol] | 0.5 |
| Cc1ccc([N+](=O)[O-])c(O)c1 [5-methyl-2-nitrophenol] | 0.77 |
| Cc1cccc([N+](=O)[O-])c1O [6-methyl-2-nitrophenol] | 0.29 |
